# Experimental data: PubChem BioAssay (NCI)
#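 In this assay, cells in 96-well plates receive the compound at five concentrations for 48 hours. Endpoints are linearly interpolated between the surrounding concentrations. TGI is the concentration that stops growth completely.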
# What was measured:
# Experiment in all cases: growth of human tumour cells (NCI), 48 h
# [1] = tested on: T-47D breast
# [2] = tested on: NCI/ADR-RES ovarian
# [3] = tested on: KM12 colon
# [4] = tested on: SK-MEL-28 melanoma
# [5] = tested on: HCT-15 colon
# [6] = tested on: RPMI-8226 leukemia
# [7] = tested on: SNB-19 CNS
# [8] = tested on: OVCAR-4 ovarian
# [9] = tested on: IGROV1 ovarian
# [10] = tested on: MDA-N
# [11] = tested on: UO-31 renal
Compound,TGI [1],TGI [2],TGI [3],TGI [4],TGI [5],TGI [6],TGI [7],TGI [8],TGI [9],TGI [10],TGI [11]
C[C@]12OC[C@H](c3ccccc3)N1C(=O)C1[C@H]2CC12SCCS2 (some centres not stated),> 100 µM,> 100 µM,> 100 µM,> 100 µM,> 100 µM,> 100 µM,> 100 µM,> 100 µM,> 100 µM,> 100 µM,> 100 µM
Cc1ccc(S(=O)(=O)N2CCN3C(=O)c4ccccc4C32c2ccc(F)cc2)cc1 (configuration not stated),> 100 µM,> 100 µM,> 100 µM,> 100 µM,> 100 µM,83.3 µM,> 100 µM,> 100 µM,> 100 µM,> 100 µM,> 100 µM
O=c1[nH]c2nc3ccccc3c(=O)n2/c1=C/c1ccc(O)cc1,> 100 µM,> 100 µM,> 100 µM,> 100 µM,> 100 µM,53.2 µM,51.3 µM,> 100 µM,> 100 µM,> 100 µM,> 100 µM
C=CC(=O)c1ccc2c(c1)OCCOCCOCCOCCOCCO2,59.4 µM,54 µM,> 100 µM,34 µM,39.2 µM,> 100 µM,> 100 µM,36.3 µM,> 100 µM,> 100 µM,> 58 µM
CC(=O)OCC1OC(N2C(=O)/C(=C\c3ccc(Cl)cc3)C(N)=Nc3ccccc32)C(OC(C)=O)C(OC(C)=O)C1OC(C)=O (configuration not stated),39.1 µM,> 100 µM,39.5 µM,71.2 µM,59.2 µM,13.8 µM,> 100 µM,66.4 µM,63.4 µM,37.9 µM,58.8 µM
Cc1ccc(-c2cc(N)n(-c3nc4c([nH]3)c(=O)n(C)c(=O)n4C)n2)cc1,23.6 µM,7.81 µM,38.9 µM,94.8 µM,18.6 µM,> 100 µM,> 100 µM,> 100 µM,18.3 µM,> 100 µM,73.1 µM
Clc1nc(Cl)nc(NC23CC4CC(CC(C4)C2)C3)n1,42.6 µM,44.5 µM,32.2 µM,36.8 µM,31.7 µM,38.4 µM,40.3 µM,39.2 µM,28.3 µM,35.3 µM,23.5 µM
